In PubChem BioAssay (NCI):
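Protocol summary: plate cells (96-well), add compound at 5 concentrations, incubate 48 h, interpolate endpoints linearly. TGI: concentration producing complete growth inhibition.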

Assays:
Experiment in all cases: NCI-60 cell line screen, 48 h
DU-145 prostate = test system: DU-145 prostate
SF-539 CNS = test system: SF-539 CNS
HT29 colon = test system: HT29 colon
LOX IMVI melanoma = test system: LOX IMVI melanoma
HCC-2998 colon = test system: HCC-2998 colon
SK-MEL-2 melanoma = test system: SK-MEL-2 melanoma
HCT-15 colon = test system: HCT-15 colon
OVCAR-8 ovarian = test system: OVCAR-8 ovarian
OVCAR-3 ovarian = test system: OVCAR-3 ovarian
CAKI-1 renal = test system: CAKI-1 renal
SF-268 CNS = test system: SF-268 CNS
RXF 393 renal = test system: RXF 393 renal
SNB-19 CNS = test system: SNB-19 CNS
M14 melanoma = test system: M14 melanoma
RPMI-8226 leukemia = test system: RPMI-8226 leukemia
KM12 colon = test system: KM12 colon
IGROV1 ovarian = test system: IGROV1 ovarian
BT-549 breast = test system: BT-549 breast
SW-620 colon = test system: SW-620 colon
786-0 renal = test system: 786-0 renal

Structure (SMILES) | TGI (DU-145 prostate) | TGI (SF-539 CNS) | TGI (HT29 colon) | TGI (LOX IMVI melanoma) | TGI (HCC-2998 colon) | TGI (SK-MEL-2 melanoma) | TGI (HCT-15 colon) | TGI (OVCAR-8 ovarian) | TGI (OVCAR-3 ovarian) | TGI (CAKI-1 renal) | TGI (SF-268 CNS) | TGI (RXF 393 renal) | TGI (SNB-19 CNS) | TGI (M14 melanoma) | TGI (RPMI-8226 leukemia) | TGI (KM12 colon) | TGI (IGROV1 ovarian) | TGI (BT-549 breast) | TGI (SW-620 colon) | TGI (786-0 renal)
Cc1nn(C(=O)c2ccc(Cl)cc2)c2c1C(c1cccc([N+](=O)[O-])c1)SC(N)=N2 (centres undefined) | > 10 µM | > 10 µM | > 10 µM | > 10 µM | > 10 µM | > 10 µM | 7.51 µM | > 10 µM | > 10 µM | > 10 µM | > 10 µM | > 10 µM | > 10 µM | > 10 µM | > 10 µM | > 10 µM | > 10 µM | > 10 µM | > 10 µM | > 10 µM
O=P1(c2ccccc2)c2ccccc2CCc2ccccc21 | > 100 µM | > 100 µM | – | > 100 µM | > 100 µM | > 100 µM | > 100 µM | > 100 µM | > 100 µM | > 100 µM | > 100 µM | > 100 µM | > 100 µM | > 100 µM | > 100 µM | > 100 µM | > 100 µM | > 100 µM | > 100 µM | > 100 µM
CCC1(CCSC(=N)N)C(=O)NC(=O)NC1=O | > 100 µM | > 100 µM | > 100 µM | > 100 µM | > 100 µM | > 100 µM | > 100 µM | > 100 µM | > 100 µM | > 100 µM | > 100 µM | > 100 µM | > 100 µM | > 100 µM | > 100 µM | > 100 µM | > 100 µM | > 100 µM | > 100 µM | > 100 µM
O=C1C(C(c2ccccc2)N2CCOCC2)=C(O)C(c2ccccc2)N1c1ccccc1 (centres undefined) | > 10 µM | > 10 µM | > 10 µM | > 10 µM | > 10 µM | > 10 µM | > 10 µM | > 10 µM | > 10 µM | > 10 µM | > 10 µM | > 10 µM | > 10 µM | > 10 µM | > 10 µM | > 10 µM | > 10 µM | > 10 µM | > 10 µM | > 10 µM
CCOC(=O)C(NCc1ccc2c(c1)OCO2)(NC(=O)c1ccccc1)C(F)(F)F (centres undefined) | > 100 µM | > 100 µM | > 100 µM | > 100 µM | > 100 µM | > 100 µM | > 100 µM | > 100 µM | > 100 µM | > 100 µM | > 100 µM | > 100 µM | > 100 µM | > 100 µM | > 100 µM | > 100 µM | > 100 µM | > 100 µM | > 100 µM | > 100 µM
